The IC50 is the concentration at which inhibition is half-maximal.

The target of this assay is USP19 (Homo sapiens (Human), UniProt O94966). Description: USP19 activity assay (fluorescence polarisation, Ubiquitin-Lys-TAMRA substrate). In kind it is biochemical. Particulars: full-length USP19 2.5 nM, 30 min pre-incubation, Ub substrate 500 nM; average of at least two duplicate experiments. A general note: Polarisation of emitted light reports the rotation of a fluorescent probe.
USP19, sequence (O94966 whole entry): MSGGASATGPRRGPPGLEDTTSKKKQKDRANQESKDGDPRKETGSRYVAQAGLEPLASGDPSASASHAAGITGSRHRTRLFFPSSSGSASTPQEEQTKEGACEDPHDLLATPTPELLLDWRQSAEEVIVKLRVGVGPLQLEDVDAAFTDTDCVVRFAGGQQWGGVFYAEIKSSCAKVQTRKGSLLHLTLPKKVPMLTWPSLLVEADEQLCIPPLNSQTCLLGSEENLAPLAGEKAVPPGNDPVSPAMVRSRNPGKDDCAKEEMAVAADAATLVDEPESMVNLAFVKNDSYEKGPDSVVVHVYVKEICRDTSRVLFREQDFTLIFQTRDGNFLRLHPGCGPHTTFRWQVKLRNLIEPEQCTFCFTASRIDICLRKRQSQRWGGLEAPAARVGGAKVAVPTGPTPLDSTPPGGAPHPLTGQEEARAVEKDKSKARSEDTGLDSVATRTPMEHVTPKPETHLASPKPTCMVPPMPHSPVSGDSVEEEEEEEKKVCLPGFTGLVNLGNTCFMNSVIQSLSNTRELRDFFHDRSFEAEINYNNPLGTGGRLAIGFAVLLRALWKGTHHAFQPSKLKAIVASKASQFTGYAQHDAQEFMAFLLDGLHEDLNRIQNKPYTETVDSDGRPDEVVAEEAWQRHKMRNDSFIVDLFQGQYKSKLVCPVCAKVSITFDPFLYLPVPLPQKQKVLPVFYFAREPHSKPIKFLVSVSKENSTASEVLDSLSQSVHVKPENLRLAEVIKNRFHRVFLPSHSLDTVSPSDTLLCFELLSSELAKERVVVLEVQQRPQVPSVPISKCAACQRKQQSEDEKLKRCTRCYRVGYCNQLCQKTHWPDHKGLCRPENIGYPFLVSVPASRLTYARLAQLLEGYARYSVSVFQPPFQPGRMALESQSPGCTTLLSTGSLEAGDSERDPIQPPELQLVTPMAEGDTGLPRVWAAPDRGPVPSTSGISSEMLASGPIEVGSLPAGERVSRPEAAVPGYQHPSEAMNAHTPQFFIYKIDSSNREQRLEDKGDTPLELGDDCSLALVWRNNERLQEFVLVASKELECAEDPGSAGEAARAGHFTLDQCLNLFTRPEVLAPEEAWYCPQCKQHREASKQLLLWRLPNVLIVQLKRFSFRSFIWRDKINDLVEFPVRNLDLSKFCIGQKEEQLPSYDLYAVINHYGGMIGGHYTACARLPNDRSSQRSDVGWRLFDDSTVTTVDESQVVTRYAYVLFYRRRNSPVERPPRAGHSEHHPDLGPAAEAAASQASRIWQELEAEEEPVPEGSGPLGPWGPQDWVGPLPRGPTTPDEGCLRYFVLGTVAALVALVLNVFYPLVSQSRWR
In the case of `CC(C)N(C)C(=O)c1cn(CC2(O)CCN(C(=O)C[C@@H](C)c3ccccc3)CC2)c(=O)cc1-c1ccccc1F` [Example 90, (R)-4-(2-Fluorophenyl)-1-((4-hydroxy-1-(3-phenylbutanoyl)piperidin-4-yl)methyl)-N-isopropyl-N-methyl-6-oxo-1,6-dihydropyridine-3-carboxamide], the IC50 lay within 0.5 to 5 µM.
The result for `CN(C)C(=O)c1cn(CC2(O)CCN(C(=O)C3CC(C(F)(F)F)C3)CC23CCCC3)c(=O)cc1-c1ccccc1` (stereo not drawn) [Example 229, 1-((10-Hydroxy-7-(3-(trifluoromethyl)cyclobutane-1-carbonyl)-7-azaspiro[4.5]decan-10-yl)methyl)-N,N-dimethyl-6-oxo-4-phenyl-1,6-dihydropyridine-3-carboxamide] reads 5 to 50 µM.
On to `C[C@H](CC(F)(F)F)C(=O)N1CC[C@@](O)(Cn2cc(C(=O)N(C)C)c(-c3ccccc3F)cc2=O)C2(CCCC2)C1` [Example 223, 4-(2-Fluorophenyl)-1-(((S)-10-hydroxy-7-((R)-4,4,4-trifluoro-2-methylbutanoyl)-7-azaspiro[4.5]decan-10-yl)methyl)-N,N-dimethyl-6-oxo-1,6-dihydropyridine-3-carboxamide], for which the half-maximal inhibitory concentration (IC50) lay within 0.5 to 5 µM.
With `CON(C)C(=O)c1cn(CC2(O)CCN(C(=O)C[C@@H](C)c3ccccc3)CC2)c(=O)cc1-c1ccccc1` [Example 97, (R)-1-((4-Hydroxy-1-(3-phenylbutanoyl)piperidin-4-yl)methyl)-N-methoxy-N-methyl-6-oxo-4-phenyl-1,6-dihydropyridine-3-carboxamide], the IC50 lay within 5 to 50 µM.
The result for `CC(C)N(C)C(=O)c1cn(CC2(O)CCN(C(=O)C[C@@H](C)c3ccccc3)CC2)c(=O)cc1-c1ccccc1` [Example 101, (R)-1-((4-Hydroxy-1-(3-phenylbutanoyl)piperidin-4-yl)methyl)-N-isopropyl-N-methyl-6-oxo-4-phenyl-1,6-dihydropyridine-3-carboxamide] reads 5 to 50 µM; that for `C[C@H](CC1CCC1)C(=O)N1CC[C@@](O)(Cn2cc(C(=O)N(C)C)c(-c3ccccc3F)cc2=O)C(C)(C)C1` [Example 235, 1-(((S)-1-((R)-3-Cyclobutyl-2-methylpropanoyl)-4-hydroxy-3,3-dimethylpiperidin-4-yl)methyl)-4-(2-fluorophenyl)-N,N-dimethyl-6-oxo-1,6-dihydropyridine-3-carboxamide], 0.5 to 5 µM; that for `C[C@H](CC(=O)N1CCC(O)(Cn2cnc(-c3ccsc3)cc2=O)CC1)c1ccccc1` [Example 22, (R)-3-((4-Hydroxy-1-(3-phenylbutanoyl)piperidin-4-yl)methyl)-6-(thiophen-3-yl)pyrimidin-4(3H)-one], 5 to 50 µM.
On to `CC1(C)CN(C(=O)CCC2CC2)CCC1(O)Cn1cnc(-c2ccccc2F)cc1=O` (racemic) [Example 83, (R,S)-3-((1-(3-Cyclopropylpropanoyl)-4-hydroxy-3,3-dimethylpiperidin-4-yl)methyl)-6-(2-fluorophenyl)pyrimidin-4(3H)-one], for which the half-maximal inhibitory concentration (IC50) lay within 50 to 250 µM.
Consider `C[C@H](CC1CCCCC1)C(=O)N1CCC(O)(Cn2cc(C(=O)N3CCOCC3)c(-c3ccccc3)cc2=O)C(C)(C)C1` (stereo partly drawn) [Example 168, 1-((1-((R)-3-Cyclohexyl-2-methylpropanoyl)-4-hydroxy-3,3-dimethylpiperidin-4-yl)methyl)-5-(morpholine-4-carbonyl)-4-phenylpyridin-2(1H)-one], for which the IC50 was below 0.5 µM.
As for `C[C@H](CC1CCCCC1)C(=O)N1CC[C@](O)(Cn2cc(C(=O)N3CCNCC3)c(-c3ccccc3)cc2=O)C2(CCCC2)C1` [Example 210, 1-(((R)-7-((R)-3-Cyclohexyl-2-methylpropanoyl)-10-hydroxy-7-azaspiro[4.5]decan-10-yl)methyl)-4-phenyl-5-(piperazine-1-carbonyl)pyridin-2(1H)-one], the IC50 lay within 5 to 50 µM.
With `C[C@H](CC1CCCCC1)C(=O)N1CC[C@@](O)(Cn2cc(C(=O)N(C)C)c(-c3ccccc3)cc2=O)C2(CCCC2)C1` [Example 211, 1-(((S)-7-((R)-3-Cyclohexyl-2-methylpropanoyl)-10-hydroxy-7-azaspiro[4.5]decan-10-yl)methyl)-N,N-dimethyl-6-oxo-4-phenyl-1,6-dihydropyridine-3-carboxamide] the figure was below 0.5 µM; with `C[C@H](CC1CCCCC1)C(=O)N1CC[C@@](O)(Cn2cc(C(=O)N3CCOCC3)c(-c3ccccc3)cc2=O)C2(CCCC2)C1` [Example 239, 1-(((S)-7-((R)-3-Cyclohexyl-2-methylpropanoyl)-10-hydroxy-7-azaspiro[4.5]decan-10-yl)methyl)-5-(morpholine-4-carbonyl)-4-phenylpyridin-2(1H)-one], below 0.5 µM.
In the case of `C[C@H](CC1CCCCC1)C(=O)N1CCC(O)(Cn2cnc(-c3cn[nH]c3)cc2=O)C(C)(C)C1` (stereo partly drawn) [Example 132, 3-((1-((R)-3-Cyclohexyl-2-methylpropanoyl)-4-hydroxy-3,3-dimethylpiperidin-4-yl)methyl)-6-(1H-pyrazol-4-yl)pyrimidin-4(3H)-one], the concentration for half-maximal inhibition (IC50) lay within 5 to 50 µM.
On to `CC(CC1CCCCCC1)C(=O)N1CCC(O)(Cn2cnc(-c3ccccc3F)cc2=O)CC1` (racemic) [Example 58, (R,S)-3-((1-(3-Cycloheptyl-2-methylpropanoyl)-4-hydroxypiperidin-4-yl)methyl)-6-(2-fluorophenyl)pyrimidin-4(3H)-one], for which the half-inhibitory concentration (IC50) lay in the range of 5 to 50 µM.
The result for `C[C@H](CC(=O)N1CCC(O)(Cn2cc(-c3ccccc3)c(-c3ccccc3)cc2=O)CC1)c1ccccc1` [Example 98, (R)-1-((4-Hydroxy-1-(3-phenylbutanoyl)piperidin-4-yl)methyl)-4,5-diphenylpyridin-2(1H)-one] reads 5 to 50 µM; that for `CC(C)CC1(C(=O)N2CCC(O)(Cn3cnc(-c4ccccc4F)cc3=O)C(C)(C)C2)CC1` (racemic) [Example 69, (R,S)-6-(2-Fluorophenyl)-3-((4-hydroxy-1-(1-isobutylcyclopropane-1-carbonyl)-3,3-dimethylpiperidin-4-yl)methyl)pyrimidin-4(3H)-one], 5 to 50 µM; that for `C[C@H](CC(=O)N1C[C@H]2CC[C@@H](C1)C2(O)Cn1cnc(-c2ccccc2F)cc1=O)c1ccccc1` (stereo partly drawn) [Example 60], 5 to 50 µM.
Regarding `C[C@H](CC1CCCCC1)C(=O)N1CCC(O)(Cn2cnc(-c3ccc(CO)cc3)cc2=O)C(C)(C)C1` (stereo partly drawn) [Example 139, 3-((1-((R)-3-Cyclohexyl-2-methylpropanoyl)-4-hydroxy-3,3-dimethylpiperidin-4-yl)methyl)-6-(4-(hydroxymethyl)phenyl)pyrimidin-4(3H)-one], the IC50 was below 0.5 µM.
Regarding `CN(C)C(=O)c1cn(CC2(O)CCN(C(=O)C[C@@H](c3ccccc3)C(F)F)CC23CCCC3)c(=O)cc1-c1ccccc1` (stereo partly drawn) [Example 180, 1-((7-((S)-4,4-Difluoro-3-phenylbutanoyl)-10-hydroxy-7-azaspiro[4.5]decan-10-yl)methyl)-N,N-dimethyl-6-oxo-4-phenyl-1,6-dihydropyridine-3-carboxamide], the half-maximal inhibitory concentration (IC50) lay within 5 to 50 µM.
As to `CC(C)N(C)C(=O)c1cn(CC2(O)CCN(C(=O)CCC3CCC3)CC2(C)C)c(=O)cc1-c1ccccc1` (racemic) [Example 79, (R,S)-1-((1-(3-Cyclobutylpropanoyl)-4-hydroxy-3,3-dimethylpiperidin-4-yl)methyl)-N-isopropyl-N-methyl-6-oxo-4-phenyl-1,6-dihydropyridine-3-carboxamide], the IC50 fell in the range of 0.5 to 5 µM.
`C[C@@H](CC(=O)N1CCC(O)(Cn2cc(C(=O)N(C)C)c(-c3ccccc3)cc2=O)C2(CCCC2)C1)c1ccccc1` (stereo partly drawn) [Example 183, 1-((10-Hydroxy-7-((S)-3-phenylbutanoyl)-7-azaspiro[4.5]decan-10-yl)methyl)-N,N-dimethyl-6-oxo-4-phenyl-1,6-dihydropyridine-3-carboxamide]: the half-inhibitory concentration (IC50) lay within 5 to 50 µM.
With `CCC(CC1CCCCC1)C(=O)N1CCC(O)(Cn2cnc(-c3ccccc3F)cc2=O)C(C)(C)C1` (stereo not drawn) [Example 118, 3-((1-(2-(Cyclohexylmethyl)butanoyl)-4-hydroxy-3,3-dimethylpiperidin-4-yl)methyl)-6-(2-fluorophenyl)pyrimidin-4(3H)-one], the concentration for half-maximal inhibition (IC50) lay within 0.5 to 5 µM.
For the compound `CC(OC1CCCCC1)C(=O)N1CCC(O)(Cn2cnc(-c3ccccc3F)cc2=O)C(C)(C)C1` (stereo not drawn) [Example 126, 3-((1-(2-(Cyclohexyloxy)propanoyl)-4-hydroxy-3,3-dimethylpiperidin-4-yl)methyl)-6-(2-fluorophenyl)pyrimidin-4(3H)-one], the 50% inhibitory concentration (IC50) lay within 50 to 250 µM.
`C[C@H](CC(=O)N1CCC(O)(Cn2cnc(-c3ccccc3OC(F)(F)F)cc2=O)CC1)c1ccccc1` [Example 30, (R)-3-((4-Hydroxy-1-(3-phenylbutanoyl)piperidin-4-yl)methyl)-6-(2-(trifluoromethoxy)phenyl)pyrimidin-4(3H)-one]: the IC50 is 50 to 250 µM.
Consider `C[C@H](CC1CCCCC1)C(=O)N1CC[C@@](O)(Cn2cc(C(=O)N(C)C)c(-c3ccccc3F)cc2=O)C2(CCCC2)C1` [Example 226, 1-(((S)-7-((R)-3-Cyclohexyl-2-methylpropanoyl)-10-hydroxy-7-azaspiro[4.5]decan-10-yl)methyl)-4-(2-fluorophenyl)-N,N-dimethyl-6-oxo-1,6-dihydropyridine-3-carboxamide], for which the half-inhibitory concentration (IC50) was below 0.5 µM.
As to `CN(C)C(=O)c1cn(CC2(O)CCN(C(=O)C3(C)CCCCC3)CC23CCCC3)c(=O)cc1-c1ccccc1` (stereo not drawn) [Example 176, 1-((10-Hydroxy-7-(1-methylcyclohexane-1-carbonyl)-7-azaspiro[4.5]decan-10-yl)methyl)-N,N-dimethyl-6-oxo-4-phenyl-1,6-dihydropyridine-3-carboxamide], the IC50 fell in the range of 5 to 50 µM.
Consider `C[C@H](CC1CCCCC1)C(=O)N1CC[C@](O)(Cn2cc(C(=O)N(C)C)c(-c3ccccc3)cc2=O)C(C)(C)C1` [Example 122, 1-(((R)-1-((R)-3-Cyclohexyl-2-methylpropanoyl)-4-hydroxy-3,3-dimethylpiperidin-4-yl)methyl)-N,N-dimethyl-6-oxo-4-phenyl-1,6-dihydropyridine-3-carboxamide], for which the half-maximal inhibitory concentration (IC50) is 50 to 250 µM.

(Values after US11053213B2, “Pharmaceutical compounds” (ALMAC DISCOVERY LIMITED, priority 2016, dated 2021).)
